Laboratory results taken from patent publication US8809581B2, “Method of making 6-aminocaproic acid as active pharmaceutical ingredient” (Sunny pharmtech Inc., priority 2012, dated 2014).

Experiment: water solubility
Assay type: physicochemical
Conditions: in water (substance/water)

- solubility: > 500 mg/mL
SMILES: NCCCCCC(=O)O [6-aminocaproic acid]
